US8268889B2, “Treatment of ovarian cancer” (Ramot at Tel-Aviv University Ltd., priority 2006, dated 2012)
pIC50: −log10 of the molar value.

Key:
Ras = experiment: Determination of total Ras by Western immunoblotting with pan anti-Ras antibody; type: cell-based, human; conditions: OVCAR-3 cells; for reduction in Ras: 24 h
Experimental: (§1) OVCAR-3 cells were plated at a density of 1.5×10^6 cells in 10-cm plates and grown for 24 h in the presence of 25 or 50 μM FTS. The cells were lysed in 0.5 mL of the Ras-binding domain of Raf-1 (RBD) lysis buffer [Herrmann, C., Martin, G. A. and Wittinghofer, A., J Biol Chem 270:2901-05 (1995)] containing 0.1 mM orthovanadate. Lysates containing 50 μg protein were used to determine total Ras by Western immunoblotting with pan anti-Ras antibody (Ab) and lysates containing 1500 μg protein to determine Ras-GTP by the glutathione S-transferase RBD pull-down assay followed by Western immunoblotting with pan anti-Ras Ab and enhanced chemiluminescence, as previously described [Fridman, M., Maruta, H. and Gonez, J., J Biol Chem 275:30363-71 (2000)]. Mouse anti β-tubulin Ab (AK-15, Sigma) was used at a dilution of 1:500 to confirm equal protein loading.
(§2) In view of the finding that OVCAR-3 cells expressed significant amounts of Ras and active Ras-GTP (FIGS. 1a and b), Applicants examined whether the Ras antagonist FTS would affect the amounts of Ras and Ras-GTP in these cells in the same way as it affects active Ras in other cell lines [Marom, M., supra.; Elad, G., Paz, A., Haklai, R., Marciano, D., Cox, A., Kloog, Y. Biomed Biochim Acta 8:1452:228-42 (1999); Weisz, B., Giehl, K., Gana-Weisz, M. et al. Oncogene 18:2579-88 (1999)]. The cells were grown for 24 h in serum containing medium with or without 25 or 50 μM FTS. Similar conditions were used in earlier studies with other cell lines [Elad, supra.; Weisz, supra.]. […] Quantitative analysis of the immunoblots disclosed that FTS, at concentrations of 25 and 50 μM, caused significant reductions of 5% and 39%, respectively, in Ras and 19% and 41%, respectively, in Ras-GTP (FIG. 1b).

OVCAR-3 cells [1] = experiment: cells; type: cell-based
Experimental: The human epithelial ovarian cell line OVCAR-3 was obtained from the American Tissue Culture Collection. Cells were routinely grown in Roswell Park Memorial Institute 1640 medium containing 10% fetal calf serum, 0.1 mM nonessential amino acids, and 2 mM L-glutamine, at 37° C. in a humidified atmosphere of 95% air/5% CO2. To examine the effect of FTS on the anchorage-dependent cell growth, cells were plated at a density of 10×10^4 cells per well in 24-well plates to which either 0.1% DMSO (control) or the test concentrations of FTS were added after 24 h. […] Cells were stained with 3-(4,5-dimethylthiosol-2-yl)-2,5-diphenyltetrazolium bromide (MTT, Sigma Chemical Co., St. Louis, Mo.), incubated for 90 min, and dissolved in 0.3 mL of 100% DMSO. The extent of staining was determined spectrophotometrically (A570, A630) using an enzyme-linked immunosorbent assay reader. All assays were carried out in quadruplicate samples and were repeated three times.
Anchorage-dependent cell growth was examined in cells that were grown in the presence of FTS.

OVCAR-3 cells [2] = experiment: cells; type: cell-based; conditions: Homo sapiens, 50 μM FTS alone, read-out: inhibition of cell growth
Experimental: OVCAR-3 cells were plated at a density of 10×10^4 cells per well in 24-well plates and grown for 3 days in the presence of 50 μM FTS. […] This protocol was chosen in order to induce only a small cytotoxic effect, thus enabling a determination of any possible enhanced effect with the Ras inhibitor. The number of live cells was evaluated 3 days later by MTT, as described earlier.
Thus, the greater than additive effect of these two drugs was manifested in an additional decrease of 35% in cell number, which was accounted for by death of the cells.

Ras-GTP = experiment: Determination of Ras-GTP by GST-RBD pull-down assay and Western immunoblotting; type: cell-based, human; conditions: OVCAR-3 cells; for reduction in Ras-GTP: 24 h
Experimental: as §1, §2

[3] = FTS alone, concentration not given

CC(C)=CCC/C(C)=C/CC/C(C)=C/CSc1ccccc1C(=O)O [FTS, farnesylthiosalicylic acid]
reduction in Ras (Ras; 25 μM FTS): 5% | reduction in Ras (Ras; 50 μM FTS): 39% | Ras reduced (summary statement) (Ras; [3]): 40% | pIC50 (OVCAR-3 cells [1]; Homo sapiens, OVCAR-3, read-out: IC50 (concentration causing 50% inhibition of cell growth)): 4.27 | foci formation and growth (OVCAR-3 cells [1]; OVCAR-3 cultures, 7 days with 25 or 50 μM FTS): strongly inhibited | inhibition at 50 µM (OVCAR-3 cells [2]): 45% | reduction in Ras-GTP (Ras-GTP; 25 μM FTS): 19% | reduction in Ras-GTP (Ras-GTP; 50 μM FTS): 41% | Ras-GTP reduced (summary statement) (Ras-GTP; [3]): 40%
